The values that follow come from PubChem BioAssay AID504507 (The Scripps Research Institute Molecular Screening Center, 2011).

The target of the assay is sn-1-specific diacylglycerol lipase ABHD11 (Mus musculus) (UniProt Q8K4F5). Nature of the assay: mouse ABHD11 inhibitor potency, late-stage follow-up, selectivity assay for LYPLA1 inhibitor project, biochemical, gel-based fluorescent ABPP, set 2 (AID 504507). The conditions noted are these: mouse proteome gel-based ABPP, fluorescent probe labeling.

Structures are written as SMILES. pIC50: −log10 of the molar value.

Chain of sn-1-specific diacylglycerol lipase ABHD11 (Mus musculus) (Q8K4F5 whole entry, looked up): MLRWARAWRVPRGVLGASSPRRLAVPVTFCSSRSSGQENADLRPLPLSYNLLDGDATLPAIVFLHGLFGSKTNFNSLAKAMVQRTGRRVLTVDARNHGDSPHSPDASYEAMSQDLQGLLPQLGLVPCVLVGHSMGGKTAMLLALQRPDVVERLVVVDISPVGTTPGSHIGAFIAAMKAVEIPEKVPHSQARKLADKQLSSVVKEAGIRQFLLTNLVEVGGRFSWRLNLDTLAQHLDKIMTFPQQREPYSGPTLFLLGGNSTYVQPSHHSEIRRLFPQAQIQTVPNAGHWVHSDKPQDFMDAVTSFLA

For `COCC1CCCCN1C(=O)n1ncc(C(O)(c2ccccc2)c2ccccc2)n1` (configuration not stated), the negative-log IC50 (pIC50) was 9.00.
With `CCC1CCCCN1C(=O)n1ncc(C(O)(c2ccccc2)c2ccccc2)n1` (configuration not stated) the figure was 7.82.
